US12655116B2, “Substituted isophthalic acid diamides” (Bayer Aktiengesellschaft, priority 2020, dated 2026)

What was measured:
[1] = test system: ECHCG; assay: Pre-emergence herbicidal action against ECHCG; assay type: in vivo, Echinochloa crus-galli; details: 80 g/ha
Text: (§1) Seeds of monocotyledonous and dicotyledonous weed plants and crop plants are laid out in sandy loam soil in wood-fiber pots and covered with soil. The compounds of the invention, formulated in the form of wettable powders (WP) or as emulsion concentrates (EC), are then applied to the surface of the covering soil in the form of an aqueous suspension or emulsion at a water application rate equivalent to 600 to 800 l/ha, with addition of 0.2% wetting agent. After the treatment, the pots are placed in a greenhouse and kept under good growth conditions for the trial plants. The damage to the test plants is scored visually after a test period of 3 weeks by comparison with untreated controls (herbicidal activity in percent (%): 100% activity=the plants have died, 0% activity=like control plants). […] The tables below illustrate, in an illustrative manner, the post-emergence herbicidal action of the compounds of the invention, the herbicidal activity being stated in percent.

[2] = test system: VIOTR; assay: Pre-emergence herbicidal action against VIOTR; assay type: in vivo, Viola tricolor
Text: as §1

[3] = test system: AMARE; assay: Pre-emergence herbicidal action against AMARE; assay type: in vivo, Amaranthus retroflexus
Text: as §1

[4] = test system: MATIN; assay: Pre-emergence herbicidal action against MATIN; assay type: in vivo, Matricaria inodora
Text: as §1

[5] = test system: SETVI; assay: Pre-emergence herbicidal action against SETVI; assay type: in vivo, Setaria viridis; details: dosage 80 g/ha
Text: as §1

[6] = test system: PHBPU; assay: Post-emergence herbicidal action against PHBPU; assay type: in vivo, Pharbitis purpurea; details: dosage 20 g/ha
Description: (§2) Seeds of monocotyledonous and dicotyledonous weed and crop plants are laid out in sandy loam soil in wood-fiber pots, covered with soil and cultivated in a greenhouse under good growth conditions. 2 to 3 weeks after sowing, the test plants are treated at the one-leaf stage. The compounds of the invention, formulated in the form of wettable powders (WP) or as emulsion concentrates (EC), are then sprayed onto the green parts of the plants in the form of an aqueous suspension or emulsion at a water application rate equivalent to 600 to 800 l/ha, with addition of 0.2% wetting agent. After the test plants have been left to stand in the greenhouse under optimal growth conditions for about 3 weeks, the action of the preparations is assessed visually in comparison to untreated controls (herbicidal action in percent (%): 100% activity=the plants have died, 0% activity=like control plants). […] The tables below illustrate, in an illustrative manner, the post-emergence herbicidal action of the compounds of the invention, the herbicidal activity being stated in percent.

[7] = test system: ALOMY; assay: Pre-emergence herbicidal action against ALOMY; assay type: in vivo, Alopecurus myosuroides; details: 80 g/ha, pre-emergence, scored visually after 3 weeks vs untreated controls (100% = plants have died, 0% = like control plants)
Text: as §1

[8] = test system: AMARE; assay: Post-emergence herbicidal action against AMARE; assay type: in vivo, Amaranthus retroflexus; details: 20 g/ha, visual assessment about 3 weeks after treatment, 100% = plants have died, 0% = like control plants
Description: as §2

[9] = test system: VERPE; assay: Pre-emergence herbicidal action against VERPE; assay type: in vivo, Veronica persica
Text: as §1

[10] = test system: ABUTH; assay: Pre-emergence herbicidal action against ABUTH; assay type: in vivo, Abutilon theophrasti; details: for Pre-emergence action against ABUTH (herbicidal activity): 80 g/ha, scored visually after 3 weeks vs untreated controls (100% = plants have died, 0% = like control plants); for Pre-emergence action against ABUTH (herbicidal activity in percent): dosage 20 g/ha, scored visually after 3 weeks vs untreated controls, 100% = plants have died, 0% = like control plants
Text: as §1

[11] = test system: ABUTH; assay: Post-emergence herbicidal action against ABUTH; assay type: in vivo, Abutilon theophrasti; details: visual assessment about 3 weeks after treatment vs untreated controls
Description: as §2

[12] = test system: ECHCG; assay: Post-emergence herbicidal action against ECHCG; assay type: in vivo, Echinochloa crus-galli
Description: as §2

[13] = test system: DIGSA; assay: Post-emergence herbicidal action against DIGSA; assay type: in vivo, Digitaria sanguinalis; details: 20 g/ha
Description: as §2

[14] = test system: SETVI; assay: Post-emergence herbicidal action against SETVI; assay type: in vivo, Setaria viridis
Description: as §2

[15] = test system: AVEFA; assay: Pre-emergence herbicidal action against AVEFA; assay type: in vivo, Avena fatua; details: 80 g/ha, pre-emergence
Text: as §1

[16] = test system: MATIN; assay: Post-emergence herbicidal action against MATIN; assay type: in vivo, Matricaria inodora; details: dosage 20 g/ha
Description: as §2

[17] = test system: DIGSA; assay: Pre-emergence herbicidal action against DIGSA; assay type: in vivo, Digitaria sanguinalis
Text: as §1

[18] = 20 g/ha, scored visually after 3 weeks vs untreated controls, 100% = plants have died, 0% = like control plants
[19] = 80 g/ha, scored visually after 3 weeks vs untreated controls (100% = plants have died, 0% = like control plants)

Cc1nnc(NC(=O)c2ccc(C(F)F)c(C(=O)NC(C)C3CC3)c2Br)o1 (centres unmarked) [Example 6-267]
90%: Pre-emergence action against AMARE in % [3, 18] | Pre-emergence action against MATIN in % ([4]; dosage 20 g/ha) | Post-emergence action at 20 g/ha against AMARE in % [8] | Pre-emergence action against VERPE in % ([9]; dosage 80 g/ha) | Pre-emergence action against ABUTH (herbicidal activity in percent) [10] | Post-emergence action against ECHCG in % ([12]; dosage 20 g/ha)
80%: Pre-emergence action against ECHCG in % [1] | Pre-emergence action against VIOTR in % ([2]; dosage 80 g/ha) | Pre-emergence action against SETVI in % [5] | Post-emergence action against PHBPU in % [6] | Pre-emergence action against ALOMY (herbicidal activity) [7] | Post-emergence action against ABUTH in % ([11]; dosage 20 g/ha)
100%: Pre-emergence action against AMARE in % [3, 19] | Pre-emergence action against MATIN in % ([4]; dosage 80 g/ha) | Pre-emergence action against ABUTH (herbicidal activity) [10]

Cc1c(C(=O)Nc2nnnn2C)ccc(C(F)(F)F)c1C(=O)NCC#N [Example 1-36]
90%: Pre-emergence action against VERPE in % ([9]; dosage 80 g/ha)
100%: Pre-emergence action against AMARE in % [3, 18] | Pre-emergence action against AMARE in % [3, 19] | Post-emergence action at 20 g/ha against AMARE in % [8] | Pre-emergence action against ABUTH (herbicidal activity) [10]

Cc1nnc(NC(=O)c2ccc(C(F)F)c(C(=O)NCc3cccs3)c2Cl)o1 [Example 6-264]
90%: Pre-emergence action against VERPE in % ([9]; dosage 80 g/ha)
100%: Pre-emergence action against AMARE in % [3, 19]
80%: Pre-emergence action against AMARE in % [3, 18] | Pre-emergence action against SETVI in % [5] | Post-emergence action at 20 g/ha against AMARE in % [8] | Post-emergence action against DIGSA [13]

CCn1nnnc1NC(=O)c1ccc(C(F)(F)F)c(C(=O)Nc2ccccc2)c1Cl [Example 2-143]
100%: Pre-emergence action against AMARE in % [3, 19] | Pre-emergence action against MATIN in % ([4]; dosage 80 g/ha) | Pre-emergence action against ABUTH (herbicidal activity) [10]
90%: Pre-emergence action against MATIN in % ([4]; dosage 20 g/ha)
80%: Pre-emergence action against VIOTR in % ([2]; dosage 80 g/ha) | Post-emergence action against PHBPU in % [6] | Pre-emergence action against VERPE in % ([9]; dosage 80 g/ha) | Post-emergence action against ABUTH in % ([11]; dosage 20 g/ha)

CCn1nnnc1NC(=O)c1ccc(C(F)F)c(C(=O)NCC#N)c1Cl [Example 2-158]
80%: Pre-emergence action against VERPE in % ([9]; dosage 20 g/ha)
100%: Pre-emergence action against VIOTR in % ([2]; dosage 80 g/ha) | Pre-emergence action against AMARE in % [3, 19] | Pre-emergence action against ABUTH (herbicidal activity) [10]
90%: Post-emergence action against SETVI in % ([14]; dosage 5 g/ha) | Post-emergence action against SETVI in % ([14]; dosage 20 g/ha) | Pre-emergence action against MATIN in % ([4]; dosage 80 g/ha) | Pre-emergence action against VERPE in % ([9]; dosage 80 g/ha)

Cc1nnc(NC(=O)c2ccc(C(F)F)c(C(=O)NCC(F)(F)F)c2Br)o1 [Example 6-168]
90%: Pre-emergence action against ECHCG in % [1] | Pre-emergence action against AMARE in % [3, 18] | Pre-emergence action against MATIN in % ([4]; dosage 80 g/ha) | Pre-emergence action against SETVI in % [5]
100%: Pre-emergence action against AMARE in % [3, 19] | Post-emergence action at 20 g/ha against AMARE in % [8] | Pre-emergence action against ABUTH (herbicidal activity) [10]
80%: Pre-emergence action against MATIN in % ([4]; dosage 20 g/ha) | Pre-emergence action against AVEFA in % [15] | Pre-emergence action against ALOMY (herbicidal activity) [7] | Post-emergence action against ECHCG in % ([12]; dosage 5 g/ha) | Post-emergence action against ECHCG in % ([12]; dosage 20 g/ha)

CCn1nnnc1NC(=O)c1ccc(C(F)F)c(C(=O)Nc2ccccc2)c1Cl [Example 2-161]
100%: Pre-emergence action against VIOTR in % ([2]; dosage 80 g/ha) | Pre-emergence action against AMARE in % [3, 19] | Post-emergence action at 20 g/ha against AMARE in % [8] | Pre-emergence action against ABUTH (herbicidal activity) [10]
90%: Pre-emergence action against AMARE in % [3, 18] | Pre-emergence action against MATIN in % ([4]; dosage 80 g/ha) | Pre-emergence action against ABUTH (herbicidal activity in percent) [10]
80%: Pre-emergence action against MATIN in % ([4]; dosage 20 g/ha) | Post-emergence action against PHBPU in % [6] | Pre-emergence action against VERPE in % ([9]; dosage 80 g/ha) | Post-emergence action against ABUTH in % ([11]; dosage 20 g/ha) | Post-emergence action against MATIN in % [16]

Cn1nnnc1NC(=O)c1ccc(C(F)(F)F)c(C(=O)NCc2cccs2)c1Cl [Example 1-144]
100%: Pre-emergence action against ECHCG in % [1] | Pre-emergence action against VIOTR in % ([2]; dosage 80 g/ha) | Pre-emergence action against AMARE in % [3, 19]
90%: Pre-emergence action against AMARE in % [3, 18] | Pre-emergence action against MATIN in % ([4]; dosage 20 g/ha) | Pre-emergence action against MATIN in % ([4]; dosage 80 g/ha) | Post-emergence action at 20 g/ha against AMARE in % [8] | Pre-emergence action against DIGSA in % ([17]; dosage 20 g/ha) | Pre-emergence action against DIGSA in % ([17]; dosage 80 g/ha)
80%: Pre-emergence action against VIOTR in % ([2]; dosage 20 g/ha) | Pre-emergence action against SETVI in % [5] | Pre-emergence action against VERPE in % ([9]; dosage 80 g/ha)

Cc1nnc(NC(=O)c2ccc(C(F)F)c(C(=O)NCC3CC3)c2C)o1 [Example 6-34]
90%: Post-emergence action against SETVI in % ([14]; dosage 20 g/ha) | Pre-emergence action against MATIN in % ([4]; dosage 80 g/ha) | Post-emergence action against ECHCG in % ([12]; dosage 20 g/ha)
100%: Pre-emergence action against ECHCG in % [1] | Pre-emergence action against AMARE in % [3, 18] | Pre-emergence action against AMARE in % [3, 19] | Post-emergence action at 20 g/ha against AMARE in % [8] | Pre-emergence action against ABUTH (herbicidal activity) [10] | Pre-emergence action against DIGSA in % ([17]; dosage 20 g/ha) | Pre-emergence action against DIGSA in % ([17]; dosage 80 g/ha)
80%: Post-emergence action against PHBPU in % [6] | Pre-emergence action against ALOMY (herbicidal activity) [7] | Post-emergence action against DIGSA [13] | Post-emergence action against ABUTH in % ([11]; dosage 5 g/ha) | Post-emergence action against ABUTH in % ([11]; dosage 20 g/ha) | Post-emergence action against ECHCG in % ([12]; dosage 5 g/ha)

Cn1nnnc1NC(=O)c1ccc(C(F)F)c(C(=O)NCC#N)c1Cl [Example 1-158]
100%: Pre-emergence action against AMARE in % [3, 18] | Pre-emergence action against AMARE in % [3, 19]
80%: Pre-emergence action against VERPE in % ([9]; dosage 20 g/ha) | Pre-emergence action against VERPE in % ([9]; dosage 80 g/ha) | Post-emergence action against ABUTH in % ([11]; dosage 20 g/ha)
90%: Pre-emergence action against VIOTR in % ([2]; dosage 80 g/ha) | Post-emergence action at 20 g/ha against AMARE in % [8]
